Measured values reported in ChEMBL document CHEMBL1201862, “PubChem BioAssay data set” (2004).
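Each compound was tested at five concentrations against cells in 96-well plates for 48 hours. At the GI50, growth is halved.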 The source made the active and inactive calls. No stated cut-off is given here; in the data, active = GI50 up to about 1.1 µM and inactive = higher.

Columns and labels:
Test in all cases: growth of human tumour cells (NCI), 48 h
EKVX = system: EKVX
MDA-N = system: MDA-N
SK-MEL-5 = system: SK-MEL-5
SK-MEL-28 = system: SK-MEL-28
SF-539 = system: SF-539
SK-MEL-2 = system: SK-MEL-2
COLO 205 = system: COLO 205
786-0 = system: 786-0
HCT-116 = system: HCT-116
A549 = system: A549
U-251 = system: U-251
SK-OV-3 = system: SK-OV-3
LOX IMVI = system: LOX IMVI
BT-549 = system: BT-549
SNB-19 = system: SNB-19
NCI/ADR-RES = system: NCI/ADR-RES
SF-268 = system: SF-268
HOP-62 = system: HOP-62
SW-620 = system: SW-620
SR = system: SR
NCI-H460 = system: NCI-H460
T47D = system: T47D
UACC-257 = system: UACC-257
NCI-H226 = system: NCI-H226
HT-29 = system: HT-29
HCT-15 = system: HCT-15
Hs-578T = system: Hs-578T
IGROV-1 = system: IGROV-1
TK-10 = system: TK-10
NCI-H23 = system: NCI-H23
SN12C = system: SN12C
HOP-92 = system: HOP-92
MDA-MB-231 = system: MDA-MB-231
CAKI-1 = system: CAKI-1
RXF 393 = system: RXF 393
MCF7 = system: MCF7
SNB-75 = system: SNB-75
ACHN = system: ACHN
K562 = system: K562
OVCAR-8 = system: OVCAR-8
OVCAR-3 = system: OVCAR-3
NCI-H522 = system: NCI-H522
RPMI-8226 = system: RPMI-8226
UACC-62 = system: UACC-62
SF-295 = system: SF-295
OVCAR-5 = system: OVCAR-5
PC-3 = system: PC-3
KM12 = system: KM12
UO-31 = system: UO-31
MDA-MB-435 = system: MDA-MB-435
HL-60 = system: HL-60
OVCAR-4 = system: OVCAR-4
CCRF-CEM = system: CCRF-CEM
M14 = system: M14
MOLT-4 = system: MOLT-4
DU-145 = system: DU-145
Malme-3M = system: Malme-3M
A498 = system: A498

## CC(=O)Oc1c(OC(C)C)c(C)c(O[Si](C(C)C)(C(C)C)C(C)C)c2[nH]c3ccccc3c12
EKVX
  GI50: > 45 µM (inactive)
MDA-N
  GI50: > 100 µM (inactive)
SK-MEL-5
  GI50: > 100 µM (inactive)
SK-MEL-28
  GI50: > 100 µM (inactive)
SF-539
  GI50: > 100 µM (inactive)
SK-MEL-2
  GI50: > 100 µM (inactive)
COLO 205
  GI50: > 100 µM (inactive)
786-0
  GI50: > 100 µM (inactive)
HCT-116
  GI50: 63.4 µM (inactive)
A549
  GI50: > 82.2 µM (inactive)
U-251
  GI50: 99.5 µM (inactive)
SK-OV-3
  GI50: > 100 µM (inactive)
LOX IMVI
  GI50: > 100 µM (inactive)
BT-549
  GI50: > 100 µM (inactive)
SNB-19
  GI50: > 100 µM (inactive)
NCI/ADR-RES
  GI50: > 100 µM (inactive)
SF-268
  GI50: > 100 µM (inactive)
HOP-62
  GI50: > 100 µM (inactive)
SW-620
  GI50: > 83.4 µM (inactive)
SR
  GI50: 25.5 µM (inactive)
NCI-H460
  GI50: > 100 µM (inactive)
T47D
  GI50: 44.4 µM (inactive)
UACC-257
  GI50: > 62.4 µM (inactive)
NCI-H226
  GI50: > 100 µM (inactive)
HT-29
  GI50: 38.5 µM (inactive)
HCT-15
  GI50: > 75.7 µM
Hs-578T
  GI50: > 100 µM (inactive)
IGROV-1
  GI50: > 100 µM (inactive)
TK-10
  GI50: > 100 µM (inactive)
NCI-H23
  GI50: 33.6 µM (inactive)
SN12C
  GI50: > 69 µM (inactive)
HOP-92
  GI50: > 100 µM (inactive)
MDA-MB-231
  GI50: > 88.3 µM (inactive)
CAKI-1
  GI50: 67.1 µM (inactive)
RXF 393
  GI50: 20.2 µM (inactive)
MCF7
  GI50: 56.6 µM (inactive)
SNB-75
  GI50: > 100 µM (inactive)
ACHN
  GI50: > 100 µM (inactive)
K562
  GI50: > 100 µM (inactive)
OVCAR-8
  GI50: > 100 µM (inactive)
OVCAR-3
  GI50: > 100 µM (inactive)
NCI-H522
  GI50: 34.6 µM (inactive)
RPMI-8226
  GI50: 71.1 µM (inactive)
UACC-62
  GI50: > 100 µM (inactive)
SF-295
  GI50: 76.2 µM (inactive)
OVCAR-5
  GI50: > 100 µM (inactive)
PC-3
  GI50: 37.7 µM (inactive)
KM12
  GI50: 67.3 µM (inactive)
UO-31
  GI50: > 100 µM (inactive)
MDA-MB-435
  GI50: > 42.2 µM (inactive)
HL-60
  GI50: 2.62 µM (inactive)
OVCAR-4
  GI50: 57.8 µM (inactive)
CCRF-CEM
  GI50: 60.1 µM (inactive)
M14
  GI50: > 94.6 µM (inactive)
MOLT-4
  GI50: 12 µM (inactive)
DU-145
  GI50: > 100 µM (inactive)

## c1ccc([P+](c2ccccc2)(c2ccccc2)c2ccc([P+](c3ccccc3)(c3ccccc3)c3ccccc3)cc2)cc1
Malme-3M
  GI50: > 100 µM (inactive)
MDA-N
  GI50: 56.1 µM (inactive)
SK-MEL-5
  GI50: 41 µM (inactive)
SK-MEL-28
  GI50: > 100 µM (inactive)
SF-539
  GI50: 24.8 µM (inactive)
SK-MEL-2
  GI50: 34.3 µM (inactive)
COLO 205
  GI50: 20.1 µM (inactive)
786-0
  GI50: > 100 µM (inactive)
HCT-116
  GI50: 32 µM (inactive)
A549
  GI50: 64.9 µM (inactive)
U-251
  GI50: 34.2 µM (inactive)
SK-OV-3
  GI50: > 100 µM (inactive)
LOX IMVI
  GI50: 34.3 µM (inactive)
BT-549
  GI50: 31.3 µM (inactive)
SNB-19
  GI50: 54.1 µM (inactive)
NCI/ADR-RES
  GI50: > 100 µM (inactive)
SF-268
  GI50: 57.4 µM (inactive)
HOP-62
  GI50: > 100 µM (inactive)
SW-620
  GI50: > 100 µM (inactive)
SR
  GI50: 0.0815 µM (active)
NCI-H460
  GI50: 43.5 µM (inactive)
T47D
  GI50: 27.9 µM (inactive)
UACC-257
  GI50: 29.2 µM (inactive)
NCI-H226
  GI50: 65.5 µM (inactive)
HT-29
  GI50: 45.8 µM (inactive)
HCT-15
  GI50: > 100 µM
Hs-578T
  GI50: 31.6 µM (inactive)
IGROV-1
  GI50: 59.7 µM (inactive)
A498
  GI50: > 100 µM (inactive)
TK-10
  GI50: 60.7 µM (inactive)
NCI-H23
  GI50: 39.9 µM (inactive)
SN12C
  GI50: 35.7 µM (inactive)
MDA-MB-231
  GI50: > 100 µM (inactive)
CAKI-1
  GI50: > 100 µM (inactive)
RXF 393
  GI50: 34.8 µM (inactive)
MCF7
  GI50: 32.4 µM (inactive)
SNB-75
  GI50: 37.6 µM (inactive)
ACHN
  GI50: > 100 µM (inactive)
K562
  GI50: 28.4 µM (inactive)
OVCAR-8
  GI50: 59.6 µM (inactive)
OVCAR-3
  GI50: 48.2 µM (inactive)
NCI-H522
  GI50: 37.1 µM (inactive)
RPMI-8226
  GI50: > 100 µM (inactive)
UACC-62
  GI50: 71.6 µM (inactive)
SF-295
  GI50: > 100 µM (inactive)
OVCAR-5
  GI50: 88.5 µM (inactive)
PC-3
  GI50: 41.4 µM (inactive)
KM12
  GI50: 31 µM (inactive)
UO-31
  GI50: > 100 µM (inactive)
MDA-MB-435
  GI50: 49.5 µM (inactive)
HL-60
  GI50: 16 µM (inactive)
CCRF-CEM
  GI50: 22.9 µM (inactive)
M14
  GI50: 82 µM (inactive)
MOLT-4
  GI50: 24.7 µM (inactive)
DU-145
  GI50: 52.8 µM (inactive)
